1 molecule from patent publication US8790712B2, “Constitutional function-improving agents” (Cosmo Oil Co., Ltd., priority 2004, dated 2014) can be followed below.

Format in all cases: in vivo, mouse
One test relates to thymus cells. The experiment in a line: Thymus weight and number of thymus cells of aged mice (Example 2). The note with it: 10 mg/kg orally once a day for 7 days; for The number of cells: thymus. Here is the method: Mice (35 to 45 weeks old, BALB/cAJc1) preliminary raised for 1 week were injected with 10 mg of ALA hydrochloride per 1 kg mouse body weight once a day for 7 days continuously. ALA hydrochloride was adjusted to a concentration of […] with distilled water and orally administered to the mice. After the test, each mouse was sacrificed and the weight of its thymus and the number of cells were measured. In addition, a subset test of lymphocytes was carried out using the obtained cells. The test was carried out using 5 mice per 1 plot, and their values were shown by average value. […] Also, since the cell of CD4-CD8+ was increased in the ALA-treated plot based on the subset test, it was confirmed that the cytotoxic T cell increases after its future differentiation, so that its immunological function improving ability was shown (Table 3). In addition, photographs of the thymus of untreated plot (un-administered group) and the thymus of ALA-treated plot (ALA-treated group) are shown in FIG. 1.

Test [1] deals with glutathione peroxidase (GPx). Briefly: GPx activity of thymus tissue (Example 3). The conditions noted are these: 10 mg/kg orally once a day for 7 days. The procedure:
Mice (35 to 45 weeks old, BALB/cAJc1) preliminary raised for 1 week were injected with 10 mg of ALA hydrochloride per 1 kg mouse body weight once a day for 7 days continuously. ALA hydrochloride was adjusted to a concentration of […] with distilled water and orally administered to the mice. After the test, each mouse was sacrificed and the thymus of mouse was collected to measure superoxide dismutase (SOD) activity of its tissue. To the collected thymus, 1.0 ml of 0.25 M sucrose solution was added, and the mixture homogenized and then centrifuged at 10,000 G for 10 minutes, and the resulting supernatant solution was used as the enzyme solution. […] That is, 250 μl of a reaction solution containing 125 μl of 0.1 M potassium phosphate buffer (pH 7.5), 10 μl of the enzyme liquid, 60 μl of 0.1 unit/ml xanthine oxidase, 45 μl of distilled water and 10 μl of 0.3 mM MPEC was dispensed into Luminescencer-PSN (manufactured by Atto Corp.), 50 μl of 0.72 mM hypoxanthine (pH 7.5) was added for emission. […]
In addition, glutathione peroxidase (GPx) activity was also measured. […]
The calculation was carried out by the following formula using the molecular extinction coefficient of NADPH of a=6.3 cm^2/μmole, by calculating the slope of straight line ΔOD (ΔOD=Δcm (quantity of change of y axis)×OD Max/full cm) from the chart. […]

The subject of test [2] is porphobilinogen deaminase (PBGD). Briefly: PBGD activity of blood (Example 5). The conditions noted are these: male mice, 10 mg/kg orally once a day for 7 days. The procedure:
Mice (35 to 45 weeks old, BALB/cAJc1) preliminary raised for 1 week were injected with 10 mg of ALA hydrochloride per 1 kg mouse body weight once a day for 7 days continuously. ALA hydrochloride was adjusted to a concentration of […] with distilled water and orally administered to the mice. After the test, each mouse was sacrificed to collect mouse blood, and ALA dehydrase (ALAD) activity (the activity of ALA in which it is dimerized and thereby forms porphobilinogen (hereinafter referred to as “PBG”) as one molecule pyrrole substance) and porphobilinogen deaminase (PBGD) activity (the activity to convert from PBG to hydroxymethylbilane) per 1 ml of the blood were measured. […] To 0.02 ml of heparin-treated mouse whole blood, 0.33 ml of distilled water was added, the mixture was adjusted to a total volume of 0.5 ml by adding thereto 0.05 ml of 0.5 M Na-phosphate buffer (pH 6.4), 0.05 ml of 0.1 M DTT (containing 1 mM ZnSO4) and 0.05 ml of 50 mM ALA hydrochloride and was kept at 37° C. for 30 minutes, the reaction was stopped by adding 0.5 ml of 1 M trichloroacetic acid, and then Ehrlich reagent was added to a supernatant after centrifugation at 3000 rpm in the same volume, and precisely 10 minutes thereafter, absorbance at 553 nm, which is a characteristic absorbance of the compound formed by the reaction of Ehrlich reagent with PBG, was measured (OD) using a spectrophotometer. […]

The structures appear in SMILES notation.

In the case of `NCC(=O)CCC(=O)O` [ALA, 5-aminolevulinic acid], the figures for the “Thymus” value in the test on thymus cells (female mice) and in the test with thymus cells (male mice) were 0.044 g and 0.034 g, respectively. The “The number of cells” value is 49.9 × 10^6 in the test with thymus cells (female mice) and 22.0 × 10^6 in the test with thymus cells (male mice). For the same molecule, the values for the GPx activity in test [1] (female mice) and in test [1] (male mice) were 0.67 U/ml and 0.61 U/ml, respectively. This molecule showed a PBGD activity in test [2] of 67.36 nmol URO/ml RBC/h.
